Assay results published in ChEMBL document CHEMBL1127426, “Androgen receptor affinity of 5'-acyl furanosteroids” (1994).

What follows are compounds tested against T1, Androgen receptor (Rattus norvegicus) (UniProt P15207) (assay: Effective dose required to inhibit testosterone propionate-stimulated prostate weight gain by 50% […].). Settings: Prostate gland.
T1 sequence (whole entry): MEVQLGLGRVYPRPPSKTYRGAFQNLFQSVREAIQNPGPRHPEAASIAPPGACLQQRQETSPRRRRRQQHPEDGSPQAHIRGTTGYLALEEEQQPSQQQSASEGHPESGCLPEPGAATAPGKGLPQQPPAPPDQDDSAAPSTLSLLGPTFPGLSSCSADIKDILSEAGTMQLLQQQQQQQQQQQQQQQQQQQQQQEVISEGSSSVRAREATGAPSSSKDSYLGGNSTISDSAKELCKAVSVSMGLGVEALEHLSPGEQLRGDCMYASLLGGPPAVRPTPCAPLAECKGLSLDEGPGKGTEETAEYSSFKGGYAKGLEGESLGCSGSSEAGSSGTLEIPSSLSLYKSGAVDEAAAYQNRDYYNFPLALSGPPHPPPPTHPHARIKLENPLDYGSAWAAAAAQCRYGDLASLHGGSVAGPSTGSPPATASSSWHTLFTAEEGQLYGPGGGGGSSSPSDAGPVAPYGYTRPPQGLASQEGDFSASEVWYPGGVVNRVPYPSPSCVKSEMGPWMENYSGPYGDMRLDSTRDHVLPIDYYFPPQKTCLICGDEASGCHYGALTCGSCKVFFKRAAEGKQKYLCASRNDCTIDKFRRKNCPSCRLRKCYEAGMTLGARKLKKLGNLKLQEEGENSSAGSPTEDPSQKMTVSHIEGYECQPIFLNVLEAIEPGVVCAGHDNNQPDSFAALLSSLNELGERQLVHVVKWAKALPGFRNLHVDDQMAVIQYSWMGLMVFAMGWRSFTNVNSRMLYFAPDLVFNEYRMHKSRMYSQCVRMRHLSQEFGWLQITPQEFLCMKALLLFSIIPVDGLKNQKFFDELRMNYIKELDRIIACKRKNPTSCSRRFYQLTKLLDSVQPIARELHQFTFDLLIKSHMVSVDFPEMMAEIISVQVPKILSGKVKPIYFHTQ
Format: tissue-based

Structure (SMILES)	ED50 [mg/kg]
C[C@]12CCC3C(CC[C@H]4Cc5oc(C(=O)c6ccccc6)cc5C[C@]34C)C1CC[C@@H]2O (stereo partly specified)	> 100
C[C@]12CCC3C(CC[C@H]4Cc5oc(C=O)cc5C[C@H]34)C1CC[C@@H]2O (stereo partly specified)	> 100
CCC(=O)c1cc2c(o1)C[C@@H]1CCC3C4CC[C@H](O)[C@@]4(C)CCC3[C@@]1(C)C2 (stereo partly specified)	33
C[C@]12CCC3C(CC[C@H]4Cc5oc(C(=O)O)cc5C[C@]34C)C1CC[C@@H]2O (stereo partly specified)	> 100
CCCC(=O)c1cc2c(o1)C[C@@H]1CCC3C4CC[C@H](O)[C@@]4(C)CCC3[C@@]1(C)C2 (stereo partly specified)	> 75
CC(=O)c1cc2cc3c(cc2o1)CC[C@@H]1[C@@H]3CC[C@]2(C)[C@@H](O)CC[C@@H]12	100
C[C@]12CCC3C(CC[C@H]4Cc5oc(C(=O)C6CC6)cc5C[C@]34C)C1CC[C@@H]2O (stereo partly specified)	100
C#C[C@]1(O)CCC2C3CC[C@H]4Cc5oc(C(=O)OC)cc5C[C@]4(C)C3CC[C@@]21C (stereo partly specified)	> 50
COC(=O)c1cc2c(o1)C[C@@H]1CCC3C4CC[C@H](O)[C@@]4(C)CCC3[C@@]1(C)C2 (stereo partly specified)	> 100
C#C[C@]1(O)CCC2C3CC[C@H]4Cc5oc(C(C)=O)cc5C[C@]4(C)C3CC[C@@]21C (stereo partly specified)	> 100
C#C[C@]1(O)CCC2C3CC[C@H]4Cc5oc(C(N)=O)cc5C[C@]4(C)C3CC[C@@]21C (stereo partly specified)	56
C#C[C@]1(O)CCC2C3CC[C@H]4Cc5oc(C(C)=O)cc5C[C@@H]4C3CC[C@@]21C (stereo partly specified)	100
CC(C)(C)C(=O)c1cc2c(o1)C[C@@H]1CCC3C4CC[C@H](O)[C@@]4(C)CCC3[C@@]1(C)C2 (stereo partly specified)	> 100
C#C[C@]1(O)CCC2C3CC[C@H]4Cc5oc(C(=O)CC)cc5C[C@]4(C)C3CC[C@@]21C (stereo partly specified)	30
C[C@]12CCC3C(CC[C@H]4Cc5occc5C[C@]34C)C1CC[C@@H]2O (stereo partly specified)	> 100
C#C[C@]1(O)CCC2C3CC[C@H]4Cc5oc(C(=O)O)cc5C[C@]4(C)C3CC[C@@]21C (stereo partly specified)	> 100
C#C[C@]1(O)CCC2C3CC[C@H]4Cc5oc(C=O)cc5C[C@]4(C)C3CC[C@@]21C (stereo partly specified)	100
C[C@]12CCC3C(CC[C@H]4Cc5oc(C=O)cc5C[C@]34C)C1CC[C@@H]2O (stereo partly specified)	> 100
CC1(C(=O)c2cc3c(o2)C[C@@H]2CCC4C5CC[C@H](O)[C@@]5(C)CCC4[C@@]2(C)C3)CC1 (stereo partly specified)	> 100

Organism: Rattus norvegicus
Assay: Effective dose required for the compound to inhibit testosterone propionate-stimulated prostate weight gain by 50% […].
Format: functional
Settings: Prostate gland

Structure (SMILES)	ED50 [mg/kg]
COc1ccc(C(=O)c2cc3c(o2)C[C@@H]2CCC4C5CC[C@H](O)[C@@]5(C)CCC4[C@@]2(C)C3)cc1 (stereo partly specified)	> 100

The compounds below were run against T1, Androgen receptor (Rattus norvegicus). Settings: Prostate gland; filed as agonist.

Structure (SMILES)	ED50
C#C[C@]1(O)CCC2C3CC[C@H]4Cc5oc(C(=O)C(F)(F)F)cc5C[C@]4(C)C3CC[C@@]21C (stereo partly specified)	Agonist
CC(=O)c1cc2c(o1)C[C@@H]1CCC3C(CC[C@@]4(C)C3CC[C@@H]4O)[C@H]1C2 (stereo partly specified)	Agonist
C[C@]12CCC3C(CC[C@H]4Cc5oc(C(=O)C(F)(F)F)cc5C[C@]34C)C1CC[C@@H]2O (stereo partly specified)	Agonist
C#C[C@]1(O)CCC2C3CC[C@H]4Cc5oc(C(=O)C6CC6)cc5C[C@]4(C)C3CC[C@@]21C (stereo partly specified)	Agonist
CC(=O)c1cc2c(o1)C[C@@H]1CCC3C4CC[C@H](O)[C@@]4(C)CCC3[C@@]1(C)C2 (stereo partly specified)	Agonist
CC[C@]1(O)CCC2C3CC[C@H]4Cc5oc(C(C)=O)cc5C[C@]4(C)C3CC[C@@]21C (stereo partly specified)	Agonist
C#C[C@]1(O)CCC2C3CC[C@H]4Cc5oc(C(=O)C(Cl)(Cl)Cl)cc5C[C@]4(C)C3CC[C@@]21C (stereo partly specified)	Agonist
CC(C)C(=O)c1cc2c(o1)C[C@@H]1CCC3C4CC[C@H](O)[C@@]4(C)CCC3[C@@]1(C)C2 (stereo partly specified)	Agonist
C[C@]12CCC3C(CC[C@H]4Cc5oc(C(=O)C6CCC6)cc5C[C@]34C)C1CC[C@@H]2O (stereo partly specified)	Agonist
C#C[C@]1(O)CCC2C3CC[C@H]4Cc5oc(C(=O)C(C)C)cc5C[C@]4(C)C3CC[C@@]21C (stereo partly specified)	Agonist
C=C[C@]1(O)CCC2C3CC[C@H]4Cc5oc(C(C)=O)cc5C[C@]4(C)C3CC[C@@]21C (stereo partly specified)	Agonist
